The results in this text go back to ChEMBL document CHEMBL4742385 (2019).

Several values for one entry are separate records, joined by “and”; a condition that tells them apart may be missing. Equal entries are not always repeated.

The target of assay [1] is CDK8/Cyclin C (Homo sapiens) (UniProt P49336+P24863). Put plainly: Inhibition of human CDK8/Cyc C expressed in Sf21 cells at 1 uM measured after 1 hr by fluorescence plate reader relative to control.
Assay [2] deals with Cyclin-C/Cyclin-dependent kinase 19 (Homo sapiens) (UniProt Q9BWU1+P24863). Put plainly: Inhibition of humanGST-tagged CDK19/Cyc C expressed in Sf21 cells at 1 uM measured after 1 hr by fluorescence plate reader relative to control.
Another assay concerns RPMI-8226. The assay is described as follows: Antiproliferative activity against human RPMI-8226 assessed as inhibition of cell growth at 1 uM after 8 days measured after Celltiter-Glo assay relative to control. The format is functional. The conditions noted are these: time 8 day; for inhibition at 1 µM: Homo sapiens, RPMI-8226, 192 h. In general terms: In ATP-based viability assays light output follows the ATP content of the culture.

In the case of `Cc1cc(NC(=O)/C=C/c2cnccc2-c2cnn(C3CC3)c2)ccc1CN1CCOCC1`, the inhibition worked out at 98% in assay [1] and 99% in assay [2]. Moreover, the inhibition at 1 µM with RPMI-8226 was 62%.
For `Cn1cc(-c2ccncc2/C=C/C(=O)Nc2ccc(CNCC(F)(F)C(F)(F)F)cc2)cn1`, the inhibition in assay [1] was determined as 101%; in assay [2] it was 99%. Further, the inhibition at 1 µM with RPMI-8226 came out at 56%.
Regarding `Cn1cc(-c2ccncc2/C=C/C(=O)Nc2ccc(CC(C)(C)O)cc2)cn1`, the values for the inhibition in assay [1] and in assay [2] were 99% and 101%, respectively. Besides, the inhibition at 1 µM in the assay on RPMI-8226 was determined as 62%.
With `Cn1cc(-c2ccncc2/C=C/C(=O)Nc2ccc(CN3CC(F)(F)C3)cc2)cn1`, the inhibition in assay [1] and in assay [2] was 99% throughout. The inhibition at 1 µM with RPMI-8226 was determined as 48%.
`Cn1cc(-c2ccncc2/C=C/C(=O)Nc2ccc3ccncc3c2)cn1`: the inhibition in assay [1] and in assay [2] was 94% each time. Further, the inhibition at 1 µM with RPMI-8226 was 55%.
Consider `CC(C)(O)Cc1ccc(NC(=O)/C=C/c2cnccc2-c2cnn(C3CC3)c2)cc1`, for which the values for the inhibition in assay [1] and in assay [2] were 100% and 103%, respectively. In addition, the inhibition at 1 µM in the assay on RPMI-8226 is 61%.
Taken in the same sequence, the figures for `O=C(/C=C/c1cncc(F)c1-c1cnn(C2CC2)c1)Nc1ccc(CN2CC3CC(C2)O3)cc1` were 102%, 101% and 59%.
On to `Cn1cc(-c2ccncc2/C=C/C(=O)Nc2ccc(Oc3ccncc3)cc2)cn1`, for which the figures for the inhibition in assay [1] and in assay [2] were 95% and 96%, respectively. The inhibition at 1 µM in the assay with RPMI-8226 came out at 54%.
The like results for `Cc1ccc(NC(=O)/C=C/c2cnccc2-c2cn[nH]c2)c(F)c1` were, in that order, 100%, 97% and 59%.
On to `O=C(/C=C/c1cnccc1-c1cnn(Cc2ccccc2)c1)Nc1ccc(CN2CCOCC2)cc1`, for which the inhibition in assay [1] and in assay [2] was 101% each time. The inhibition at 1 µM in the assay with RPMI-8226 amounted to 63%.
For `CS(=O)(=O)O.O=C(/C=C/c1cnccc1-c1cnn(C2CC2)c1)Nc1ccc(CN2CC(F)(F)C2)cc1`, the “inhibition (INH)” value in the assay with RPMI-8226 worked out at 70%.
`COCCOc1ccc(NC(=O)/C=C/c2cnccc2-c2cnn(C)c2)cc1`: the inhibition in assay [1] came to 98%; in assay [2] it was 97%. The inhibition at 1 µM with RPMI-8226 was determined as 62%.
For `COCc1ccc(NC(=O)/C=C/c2cnccc2-c2cnn(C)c2)cc1`, the inhibition in assay [1] and in assay [2] was 100% throughout. In the assay on RPMI-8226, the inhibition at 1 µM amounted to 65%.
For `Cn1cc(-c2ccncc2/C=C/C(=O)Nc2ccc3c(c2)CCN3)cn1`, the results for the inhibition in assay [1] and in assay [2] were 97% and 96%, respectively. In the assay with RPMI-8226, the inhibition at 1 µM came to 58%.
`O=C(/C=C/c1cnccc1-c1cnn(C2CC2)c1)Nc1ccc(CN2CC3(COC3)C2)cc1`: the inhibition in assay [1] was determined as 110%; in assay [2], 98%. Besides, the inhibition at 1 µM in the assay on RPMI-8226 worked out at 56%.
For `Cn1cc(-c2ccncc2/C=C/C(=O)Nc2ccc3c(c2)OCO3)cn1`, the inhibition in assay [1] was 96%; in assay [2], 94%. The inhibition at 1 µM with RPMI-8226 was determined as 53%.
As for `CCn1cc(-c2ccncc2/C=C/C(=O)Nc2ccc(CN3CCOCC3)cc2)cn1`, the figures for the inhibition in assay [1] and in assay [2] were 96% and 100%, respectively. The inhibition at 1 µM with RPMI-8226 stood at 63%.
Take `O=C(/C=C/c1cnccc1-c1cnn(Cc2ccccn2)c1)Nc1ccc(CN2CCOCC2)cc1`: the inhibition turned out to be 101% in assay [1] and 98% in assay [2]. The inhibition at 1 µM in the assay with RPMI-8226 was 57%.
For the molecule `O=C(/C=C/c1cnccc1-c1cnn(C2CC2)c1)Nc1ccc2c(ccn2CC(F)(F)F)c1`, the values for the inhibition in assay [1] and in assay [2] were 99% and 98%, respectively. In addition, the inhibition at 1 µM in the assay on RPMI-8226 worked out at 57%.
Consider `Cn1cc(-c2ccncc2/C=C/C(=O)Nc2ccc3c(ccn3C)c2)cn1`, for which the inhibition in assay [1] amounted to 98%; in assay [2] it was 99%. Further, in the assay with RPMI-8226, the inhibition at 1 µM came out at 55%.
In the case of `Cn1cc(-c2ccncc2/C=C/C(=O)Nc2ccc(CCN3CCOCC3)cc2)cn1`, the inhibition was found to be 96% in assay [1] and 101% in assay [2]. For the same molecule, the inhibition at 1 µM with RPMI-8226 was found to be 59%.
As to `CC(C)(F)Cc1ccc(NC(=O)/C=C/c2cncc(F)c2-c2cnn(C3CC3)c2)cc1`, the inhibition in assay [1] was found to be 99%; in assay [2], 101%. For the same molecule, the inhibition at 1 µM with RPMI-8226 came to 62%.
Turning to `O=C(/C=C/c1cnccc1-c1cnsc1)Nc1ccc(CN2CCOCC2)cc1`, the inhibition was 90% in assay [1] and 94% in assay [2]. For the same molecule, in the assay on RPMI-8226, the inhibition at 1 µM was found to be 51%.
Turning to `O=C(/C=C/c1cnccc1-c1cnn(C2CC2)c1)Nc1ccc(CN2CC(F)(F)C2)cc1F`, the figures for the inhibition in assay [1] and in assay [2] were 105% and 74%, respectively. Further, in the assay with RPMI-8226, the inhibition at 1 µM was 51%.
The like results for `COCCn1cnc2ccc(-c3ccncc3/C=C/C(=O)Nc3ccc(CN4CCOCC4)cc3)cc21` were, in that order, 103%, 97% and 62%.
Taken in the same sequence, the figures for `O=C(/C=C/c1cnccc1-c1cnn(C2CC2)c1)Nc1ccc(COCC(F)(F)F)cc1F` were 101%, 96% and 53%.
In the case of `Cn1cc(-c2ccncc2/C=C/C(=O)Nc2ccc(Cn3ccnc3)cc2)cn1`, the inhibition in assay [1] is 102%; in assay [2], 98%. Further, the inhibition at 1 µM in the assay on RPMI-8226 stood at 64%.
Turning to `Cn1cc(-c2ccc(NC(=O)/C=C/c3cnccc3-c3cnn(C4CC4)c3)cc2)cn1`, the inhibition came to 92% in assay [1] and 97% in assay [2]. For the same molecule, the inhibition at 1 µM in the assay on RPMI-8226 came to 58%.
Turning to `O=C(/C=C/c1cnccc1-c1cnn(C2CC2)c1)Nc1ccc2c(c1)CN(CC(F)(F)C(F)(F)F)CC2`, the figures for the inhibition in assay [1] and in assay [2] were 97% and 94%, respectively. For the same molecule, the inhibition at 1 µM with RPMI-8226 came to 57%.
With `O=C(/C=C/c1cnccc1-c1cnn(C2CC2)c1)Nc1ccc(CN2CC(F)(F)C2)cc1.O=C(O)CCC(=O)O`, in the assay with RPMI-8226, the “inhibition (INH)” value was 66%.
As for `Cn1cc(-c2c(F)cncc2/C=C/C(=O)Nc2ccc(CN3CCOCC3)cc2F)cn1`, the inhibition in assay [1] is 98%; in assay [2], 99%. Moreover, the inhibition at 1 µM with RPMI-8226 was 53%.
As for `CN(C)CCOc1ccc(NC(=O)/C=C/c2cnccc2-c2cnn(C)c2)cc1`, the inhibition in assay [1] amounted to 99%; in assay [2], 93%. Moreover, in the assay with RPMI-8226, the inhibition at 1 µM amounted to 60%.
Take `O=C(/C=C/c1cnccc1-c1ccc2[nH]cnc2c1)Nc1ccc(CN2CCOCC2)cc1`: the values for the inhibition in assay [1] and in assay [2] were 99% and 101%, respectively. For the same molecule, the inhibition at 1 µM with RPMI-8226 came to 66%.
As for `O=C(/C=C/c1cnccc1-c1cnn(C2CC2)c1)Nc1ccc(CN2CC(F)(F)C2)cc1.O=C(O)/C=C/C(=O)O`, the “inhibition (INH)” value with RPMI-8226 is given as 70%.
On to `O=C(/C=C/c1cnccc1-c1cnn(C2CC2)c1)Nc1ccc(CN2CC(F)(F)C2)cc1.O=P(O)(O)O.O=P(O)(O)O`, for which, in the assay on RPMI-8226, the “inhibition (INH)” value stood at 69%.
With `O=C(/C=C/c1cnccc1-c1cnn(C2CC2)c1)Nc1ccc(CN2CC(F)(F)C2)cc1`, the inhibition in assay [1] is 102% [middle of 6 runs]; in assay [2], 101% (3×) and 100% (3×).
For `O=C(/C=C/c1cnccc1-c1cnn(C2CC2)c1)Nc1ccc(CN2CC(F)(F)C2)cc1.O=S(=O)(O)O`, the “inhibition (INH)” value in the assay with RPMI-8226 is listed as 70%.

Broadly, the inhibition is the drop in the measured response relative to a control, in per cent.
